Experiments:
rat bladder strips = assay: Isometric tension recording of bladder smooth muscle strips (ACh-induced contraction); conditions: 100 μM, 30 min pre-incubation, 1 μM ACh, compared to vehicle, n=6
Description: […] tension recording of UBSM experiment was performed by a known method (Dela Pena et al. 2009; Kullmann et al. 2014). In short, a male Sprague-Dawley rat (300-350 g) was euthanized by CO2 choking. Then, the bladder of the rat was excised. The bladder was longitudinally divided into four strips (approximately 2×8 mm). Each separated strip was clipped between a static mount and a force-displacement transducer. Then, the clipped strips were suspended in a temperature-controlled (37° C.) organ bath containing 10 ml of Krebs solution ((mM): 118.4 NaCl, 4.7 KCl, 1.2 KH2PO4, 1.2 MgSO4, 25.0 NaHCO3, 2.5 CaCl2, and 12.2 glucose; pH 7.35-7.40). Then, a mixture of 95% 02 and 5% CO2 was used to continuously generate bubbles in the organ bath. Each UBSM strip was stretched to 1.0 gram of an optimal isometric tension, and was equilibrated for 60 minutes. […] After reaching the equilibration, the strips were stabilized via repeated application of acetylcholine (1 μM) until a continuous reaction was recorded. […] Relaxation was expressed as a percentage reduction in the tension due to acetylcholine-induced contraction. […] Changes in the isometric tension were recorded using a Power Lab Data Acquisition System (ADInstruments) associated with a computer with Lab Chart Software (Version 7, AD Instruments) installed therein. […]

Wistar Kyoto rat (WKY) = assay: Voiding behavior of Wistar Kyoto rat (WKY); assay type: in vivo; conditions: up to 5 mg/kg
Description: The voiding frequency was monitored for 3 hours. FIG. 9B represents a total number of voidings. Each symbol or bar represents average±SEM of 5 (WKY) or 7 (SHR) animals (*** P<0.001).
The cumulative voiding frequency is shown in FIG. 9A for WKY and SHR orally administered with kurarinone. The administration of kurarinone may allow distinct differences in voiding frequency to be evident between WKY and SHR. […] In the WKY control rat, the decrease of the voiding frequency was not observed.

C=C(C)[C@H](CC=C(C)C)Cc1c(O)cc(OC)c2c1O[C@H](c1ccc(O)cc1O)CC2=O [kurarinone]
relaxation effect on ACh-induced contraction (rat bladder strips): 58.2±6.2%
effect on voiding frequency (Wistar Kyoto rat (WKY)): not affected
